Results from patent US8722670B2, “Selective NR2B antagonists” (Bristol-Myers Squibb Company, priority 2011, dated 2014).

Each molecule was assayed against T1, hNR2B (Homo sapiens, UniProt Q05586+Q13224) (assay: Electrophysiology NMDA receptor experiments: two electrode voltage-clamp in Xenopus laevis oocytes, hNR2B IC50). Settings: hNR2B activity class, 50 μM glutamate, 30 μM glycine, read-out: Activity.
T1 construct: expressed in transfected cells; host or cells: Xenopus laevis oocytes, cRNA-injected
Assay type: cell-based
Method: (§1) Stage V and VI oocytes were surgically removed from the ovaries of large, well-fed and healthy Xenopus laevis anesthetized with 3-amino-benzoic acid ethyl ester (3 gm/l). […] Oocytes were then washed in the same solution supplemented with 1.8 mM CaCl2 and maintained in Barth's solution comprised of (in mM): 88 NaCl, 1 KCl, 2.4 NaHCO3, 10 HEPES, 0.82 MgSO4, 0.33 Ca(NO3)2, and 0.91 CaCl2 and supplemented with 100 μg/ml gentamycin, 10 μg/ml streptomycin, and 10 μg/ml penicillin.
(§2) Two electrode voltage-clamp recordings were made 2-7 days post-injection. Oocytes were placed in a dual-track plexiglass recording chamber with a single perfusion line that splits in a Y-configuration to perfuse two oocytes. Dual recordings were made at room temperature (23° C.) using two Warner OC725B two-electrode voltage clamp amplifiers, arranged as recommended by the manufacturer. Glass microelectrodes (1-10 Megaohms) were filled with 300 mM KCl (voltage electrode) or 3 M KCl (current electrode). The bath clamps communicated across silver chloride wires placed into each side of the recording chamber, both of which were assumed to be at a reference potential of 0 mV. Oocytes were perfused with a solution comprised of (in mM) 90 NaCl, 1 KCl, 10 HEPES, 10 EDTA and 0.5 BaCl2; pH 7.4, adjusted by addition of NaOH. Oocytes were recorded under voltage clamp at −40 mV. Final concentrations for glutamate and glycine were 50 μM and 30 μM, respectively. […] Dose response curves consisting of four to eight concentrations were obtained in this manner. The baseline leak current at −40 mV was measured before and after recording, and the full recording linearly corrected for any change in leak current. The level of inhibition by applied experimental compounds was expressed as a percent of the initial glutamate response, and averaged together across oocytes from multiple experiments.
(§3) For NMDA receptor subtype selectivity experiments human GluN1/GluN2A, GluN1/GluN2C, and GluN1/GluN2D cRNAs were expressed in Xenopus laevis as described above. Here, 10 μM concentrations of the antagonist was perfused with 50 μM glutamate and 30 μM glycine onto the oocyte for two min and the remaining current in the presence of the antagonist was compared to the maximal current obtained with 50 μM glutamate and 30 μM glycine alone (defined as 100%). When IC50 determinations were made against other NMDA receptor subtypes the protocol as described above was followed.

T1 sequence (Q13224 27-1484, other chains not shown): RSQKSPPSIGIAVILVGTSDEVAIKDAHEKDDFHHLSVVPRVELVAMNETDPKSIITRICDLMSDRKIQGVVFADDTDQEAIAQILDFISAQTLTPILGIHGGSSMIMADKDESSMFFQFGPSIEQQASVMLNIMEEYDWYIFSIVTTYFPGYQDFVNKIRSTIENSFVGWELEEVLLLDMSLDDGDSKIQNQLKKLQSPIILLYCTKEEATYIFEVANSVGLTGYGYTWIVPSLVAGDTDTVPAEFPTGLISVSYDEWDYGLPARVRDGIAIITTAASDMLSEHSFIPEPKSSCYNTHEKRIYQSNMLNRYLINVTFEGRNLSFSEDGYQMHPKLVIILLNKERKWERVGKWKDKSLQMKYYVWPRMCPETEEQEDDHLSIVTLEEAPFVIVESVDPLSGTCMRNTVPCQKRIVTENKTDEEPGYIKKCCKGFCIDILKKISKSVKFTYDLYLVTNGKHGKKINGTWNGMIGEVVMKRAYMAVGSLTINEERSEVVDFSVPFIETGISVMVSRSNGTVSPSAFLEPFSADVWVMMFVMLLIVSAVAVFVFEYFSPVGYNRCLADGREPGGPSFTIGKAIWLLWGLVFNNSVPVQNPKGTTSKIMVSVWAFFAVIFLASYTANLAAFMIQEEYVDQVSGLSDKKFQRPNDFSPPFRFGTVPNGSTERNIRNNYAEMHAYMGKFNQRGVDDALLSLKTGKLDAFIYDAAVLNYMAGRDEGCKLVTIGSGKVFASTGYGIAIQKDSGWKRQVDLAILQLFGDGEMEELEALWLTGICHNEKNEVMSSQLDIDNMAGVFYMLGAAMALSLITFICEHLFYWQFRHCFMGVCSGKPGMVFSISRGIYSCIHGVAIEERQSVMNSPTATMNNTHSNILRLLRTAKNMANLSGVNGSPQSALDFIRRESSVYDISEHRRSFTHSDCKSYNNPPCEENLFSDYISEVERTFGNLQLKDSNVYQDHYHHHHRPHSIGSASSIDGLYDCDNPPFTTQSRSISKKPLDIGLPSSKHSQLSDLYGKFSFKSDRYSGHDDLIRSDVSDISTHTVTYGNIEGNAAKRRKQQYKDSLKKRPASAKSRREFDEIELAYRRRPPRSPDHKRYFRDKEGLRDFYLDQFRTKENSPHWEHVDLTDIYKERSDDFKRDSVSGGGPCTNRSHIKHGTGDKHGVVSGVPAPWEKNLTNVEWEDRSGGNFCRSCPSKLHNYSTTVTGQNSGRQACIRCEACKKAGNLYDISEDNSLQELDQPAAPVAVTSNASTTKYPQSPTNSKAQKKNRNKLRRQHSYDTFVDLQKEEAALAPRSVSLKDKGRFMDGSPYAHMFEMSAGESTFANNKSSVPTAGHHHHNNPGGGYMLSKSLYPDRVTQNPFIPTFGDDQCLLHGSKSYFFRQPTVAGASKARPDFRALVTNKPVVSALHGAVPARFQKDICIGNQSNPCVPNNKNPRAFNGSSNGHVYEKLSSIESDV

| SMILES | IC50 [nM] |
| --- | --- |
| O=c1ccc2cc(OCc3cc(Nc4ccc(C(F)(F)F)cc4)no3)ccc2[nH]1 [Example 264] | < 200 |
| CCc1ccc(Nc2cc(COc3ccc4[nH]c(=O)ccc4c3)on2)cc1 [Example 265] | < 200 |
| CCCc1ccc(Nc2cc(COc3ccc4[nH]c(=O)ccc4c3)on2)cc1 [Example 266] | > 10000 |
| O=c1ccc2cc(OCc3cc(Nc4ccc(OC(F)F)c(F)c4)no3)ccc2[nH]1 [Example 267] | < 200 |
| Cc1cc(Nc2cc(COc3ccc4[nH]c(=O)ccc4c3)on2)ccc1OC(F)F [Example 268] | < 200 |
| O=c1ccc2cc(OCc3cc(Nc4ccc(C(F)(F)F)c(Cl)c4)no3)ccc2[nH]1 [Example 269] | < 200 |
| Cc1cc(Nc2cc(COc3ccc4[nH]c(=O)ccc4c3)on2)ccc1F [Example 270] | 1000 to 10000 |
| Cc1ccc(Nc2cc(COc3ccc4[nH]ncc4c3)on2)cc1F [Example 271] | < 200 |
| Cc1cc(Nc2cc(COc3ccc4[nH]ncc4c3)on2)ccc1OC(F)F [Example 272] | < 200 |
| CCc1ccc(Nc2cc(COc3ccc4[nH]ncc4c3)on2)cc1 [Example 273] | 1000 to 10000 |
| Fc1cc(Nc2cc(COc3ccc4[nH]ncc4c3)on2)ccc1OC(F)F [Example 274] | < 200 |
| FC(F)Oc1ccc(Nc2cc(COc3ccc4[nH]ncc4c3)on2)cc1 [Example 275] | < 200 |
| Cn1c(COc2ccc3[nH]c(=O)ccc3c2)nnc1Nc1ccc(OC(F)(F)F)cc1 [Example 279] | < 200 |
| Cn1c(CCNc2ncnc3[nH]ncc23)nnc1Nc1ccc(OC(F)F)cc1 [Example 280] | < 200 |
| CCn1c(COc2ccc3[nH]c(=O)ccc3c2)nnc1Nc1ccc(OC(F)F)cc1 [Example 281] | < 200 |
| O=C1CCc2cc(OCc3nnc(Nc4ccc(Cl)cc4)[nH]3)ccc2N1 [Example 283] | 201 to 1000 |

Same assay, conditions: voltage clamp -40 mV, 50 μM glutamate, 30 μM glycine, read-out: hNR2B IC50

| SMILES | IC50 [nM] |
| --- | --- |
| Cn1c(COc2ccc3[nH]c(=O)ccc3c2)nnc1Nc1ccc(Cl)c(Cl)c1 [Example 276, 6-((5-(3,4-dichlorophenylamino)-4-methyl-4H-1,2,4-triazol-3-yl)methoxy)quinolin-2(1H)-one] | 24 |
| Cn1c(CCc2ccc3[nH]ncc3c2)nnc1Nc1ccc(OC(F)F)cc1 [Example 277, 5-(2-(1H-indazol-5-yl)ethyl)-N-(4-(difluoromethoxy)phenyl)-4-methyl-4H-1,2,4-triazol-3-amine] | 104 |
| Cn1c(COc2ccc3[nH]c(=O)ccc3c2)nnc1Nc1ccc(OC(F)F)cc1 [Example 278] | 90 |
| O=c1ccc2cc(OCc3nnc(Nc4ccc(Cl)cc4)[nH]3)ccc2[nH]1 [Example 282] | 290 |
| O=C1CCc2cc(OCc3nnc(Cc4ccc(Cl)c(Cl)c4)[nH]3)ccc2N1 [Example 284, 6-((5-(3,4-dichlorobenzyl)-4H-1,2,4-triazol-3-yl)methoxy)-3,4-dihydroquinolin-2(1H)-one] | 20000 |
| O=c1ccc2cc(OCc3nnc(Cc4ccc(Cl)c(Cl)c4)[nH]3)ccc2[nH]1 [Example 285, 6-((5-(3,4-dichlorobenzyl)-4H-1,2,4-triazol-3-yl)methoxy)quinolin-2(1H)-one] | 5000 |
| O=C1CCc2cc(OCc3nnc(-c4ccc(Cl)cc4)[nH]3)ccc2N1 [Example 286, 6-((5-(4-chlorophenyl)-4H-1,2,4-triazol-3-yl)methoxy)-3,4-dihydroquinolin-2(1H)-one] | 3000 |
| O=C1CCc2cc(OCc3nc(Cc4ccc(Cl)cc4)no3)ccc2N1 [Example 287, 6-((3-(4-chlorobenzyl)-1,2,4-oxadiazol-5-yl)methoxy)-3,4-dihydroquinolin-2(1H)-one] | 3800 |
| O=C1CCc2cc(OCCCc3noc(-c4ccc(Cl)cc4)n3)ccc2N1 [Example 288, 6-(3-(5-(4-chlorophenyl)-1,2,4-oxadiazol-3-yl)propoxy)-3,4-dihydroquinolin-2(1H)-one] | > 10000 |
| O=c1ccc2cc(OCc3nnc(Cc4ccc(Cl)c(Cl)c4)o3)ccc2[nH]1 [Example 289, 6-((5-(3,4-dichlorobenzyl)-1,3,4-oxadiazol-2-yl)methoxy)quinolin-2(1H)-one] | 2400 |
| O=C1CCc2cc(OCc3nnc(C(O)c4ccc(Cl)c(Cl)c4)o3)ccc2N1 (centres unmarked) [Example 290, 6-((5-((3,4-dichlorophenyl)(hydroxy)methyl)-1,3,4-oxadiazol-2-yl)methoxy)-3,4-dihydroquinolin-2(1H)-one] | 4800 |
| O=C1CCc2cc(OCCNc3nnc(-c4ccc(C(F)(F)F)cc4)o3)ccc2N1 [Example 291, 6-(2-(5-(4-(trifluoromethyl)phenyl)-1,3,4-oxadiazol-2-ylamino)ethoxy)-3,4-dihydroquinolin-2(1H)-one] | 1200 |

Each molecule was assayed against T2, hNR2B (Homo sapiens, UniProt Q13224) in the same assay as above. Settings: hNR2B activity class, 50 μM glutamate, 30 μM glycine.
T2 construct: expressed in transfected cells; host or cells: Xenopus laevis oocytes, cRNA-injected
Assay type: cell-based
Method: as §1, §2, §3

T2 sequence (Q13224 27-1484, other chains not shown): as above

| SMILES | IC50 [nM] |
| --- | --- |
| CC(Oc1ccc2[nH]c(=O)ccc2c1)c1nnc(Nc2ccc(Cl)c(Cl)c2)o1 (single isomer, unassigned) [Example 110] | < 200 |
